From publication PMC4195672, “The Red Imported Fire Ant (Solenopsis invicta Buren) Kept Y not F: Predicted sNPY Endogenous Ligands Deorphanize the Short NPF (sNPF) Receptor” (PLoS ONE, 2014)
Entries after “also recorded” stand apart in the source; their conditions may differ.

Key:
[1] = test system: S. invicta sNPF receptor (HA-tagged, stably expressed in CHO-K1 cells); assay: Inhibition of forskolin-stimulated intracellular cAMP in SisNPFR-C6E8 cell line (cAMP EIA); format: cell-based, Solenopsis invicta; conditions: for EC50: 50 µM Ro-20-1724, forskolin 10 µM with 0-10 µM peptide (10 concentrations), 1 h, 37°C, three independent biological replicates; for Activity on the receptor (change of forskolin-stimulated cAMP), result in words: forskolin 10 µM, peptide at 1 µM (analogous sNP(F) tested at 10 nM and 1 µM), three biological replicates
Method: For the functional characterization of S. invicta sNPFR, stably transformed cell lines were established as described. In brief, CHO-K1 cells were obtained from the American Type Culture Collection (ATCC, Manassas, VA, USA) and grown as described in a 5% CO2 humidified incubator at 37°C. For transfection, CHO-K1 cells were seeded into T-25 tissue culture flasks and allowed to grow overnight until 50% confluent. Cells were transfected in serum-free Opti-MEM medium (Life Technologies, Gaithersburg, MD, USA) with the cationic lipid reagent Lipofectin (Life Technologies) (6 µl) and 2 µg of the expression construct according to the manufacturer’s protocol. After 6 h, the lipofectin-containing medium was removed and replaced with F12K (Sigma, St. Louis, MO, USA) medium plus 10% fetal bovine serum (EquiTech Bio, Kerrville, TX, USA) without antibiotic. After 48 h of growth, the cells were split into the same medium but with antibiotic Geneticin (Invitrogen) (800 µg/ml), and selection continued for 5 weeks followed by isolation of clonal lines. A total of 14 clonal cell lines were obtained by dilution and selection of single cells distributed in a 96-well plate (96 theoretical single cells). Presence of S. invicta sNPFR transcript was verified by screening by RT-PCR by pooling aliquots from clonal cell lines. For this, total RNA was isolated by RNeasy Mini kit (Qiagen) and used for cDNA synthesis with SuperScript III First-Strand Synthesis System followed by RT-PCR with receptor forward sNPFRf1 and reverse sNPFRr1 primers (Table S1). The cell lines from groups that generated the RT-PCR product of the expected size were further screened. Single positive clonal cell lines were subjected to functional assay using S. invicta sNPF1 and sNPF2 as ligands. Cell line C6 was further selected to obtain a line designated SisNPFR-C6E8, which was the best performing cell line and was chosen for receptor functional characterization.
To quantify changes in intracellular cAMP, 1×10^5 cells of SisNPFR-C6E8 were seeded in each well of a 6-well plate and incubated at 37°C in presence of 5% CO2 for 24 h to allow cell attachment. Cell culture medium [F12 K medium with 10% fetal bovine serum and 400 µg/ml of Geneticin] was then replaced with the same fresh medium as above and the cells were grown for additional 48 h until they reached 90–100% confluence. The cells were rinsed twice with F12 K medium only (serum and antibiotic free) and then incubated in 50 µM Ro-20-1724 phosphodiesterase inhibitor (Santa Cruz Biotechnology, Santa Cruz, CA, USA) in F12 K medium. Forskolin (10 µM) (Cayman Chemical, Ann Arbor, MI, USA) or forskolin (10 µM) with 0–10 µM solutions of ligands (10 concentrations), respectively, were added to the cells and incubated at 37°C in the presence of 5% CO2 for 1 h. Cells were rinsed once with F12 K medium, serum- and antibiotic-free, followed by lysis with 274 µl of 0.1 M HCl at RT for 20 min and centrifugation at 1000 g for 10 min. The supernatant was used for cAMP measurements using the cyclic AMP EIA Kit (Cayman Chemical) following the manufacturer’s protocol. In brief, 50 µl of supernatants and cAMP standards were loaded in a 96-well plate, and the cAMP EIA buffer was used as blank. cAMP AChE tracer (50 µl) (cAMP bound to acetylcholinesterase for competition) and 50 µl of anti-cAMP specific antiserum were added. Then the mixture was incubated at 4°C for 18 h. The mixture was removed and the plate was rinsed five times with wash buffer containing 0.05% polysorbate-20. After washing, the plate was developed at RT for 2 h using the Ellman’s reagent and the OD (412 nm) was measured in a VersaMax tunable microplate reader (Molecular Devices, Sunnyvale, CA, USA). cAMP level was calculated using Cayman provided formulas and aided by software located at http://www.myassays.com/(MyAssays Ltd., Haywards Heath, West Sussex, UK) for the output standard line graph and cAMP concentration calculations. […]

[2] = test system: S. invicta sNPF receptor (SisNPFR-C6E8 cell line); assay: Pilot study: stimulation of intracellular cAMP production in SisNPFR-C6E8 cell line; format: cell-based, Solenopsis invicta
Method: To quantify changes in intracellular cAMP, 1×10^5 cells of SisNPFR-C6E8 were seeded in each well of a 6-well plate and incubated at 37°C in presence of 5% CO2 for 24 h to allow cell attachment. Cell culture medium [F12 K medium with 10% fetal bovine serum and 400 µg/ml of Geneticin] was then replaced with the same fresh medium as above and the cells were grown for additional 48 h until they reached 90–100% confluence. The cells were rinsed twice with F12 K medium only (serum and antibiotic free) and then incubated in 50 µM Ro-20-1724 phosphodiesterase inhibitor (Santa Cruz Biotechnology, Santa Cruz, CA, USA) in F12 K medium. […] After washing, the plate was developed at RT for 2 h using the Ellman’s reagent and the OD (412 nm) was measured in a VersaMax tunable microplate reader (Molecular Devices, Sunnyvale, CA, USA). cAMP level was calculated using Cayman provided formulas and aided by software located at http://www.myassays.com/(MyAssays Ltd., Haywards Heath, West Sussex, UK) for the output standard line graph and cAMP concentration calculations. […] For this, the average absorbance readings for non-specific binding (NSB) and B0 wells were obtained, and the NSB average was deducted from the B0 average to generate the corrected B0 maximum binding value. […] The cAMP concentration of each sample was determined on the basis of the standard curve. […]

| Substance | EC50 [1] | Stimulation of intracellular cAMP production (without forskolin), result in words [2] | Activity on the receptor (change of forskolin-stimulated cAMP), result in words [1] | Activity on the receptor (change of forskolin-stimulated cAMP), result in words ([1]; listed as honey bee long NPF (NPY)) |
| --- | --- | --- | --- | --- |
| SALAAGHLRYa [S. invicta sNPF2] | 8.6 nM | did not stimulate production of intracellular cAMP | – | – |
| EPEPMARPTRPEIFTSPEELRRYIDHVSDYYLLSGKARYa [Apime NPY, Honey bee (A. mellifera) NPY, long NPF (NP_001161192.1), commercially synthesized] | – | – | failed to change the cAMP production; also recorded: not active1 µM | not activated |
| SLRSALAAGHLRFa [Analogous sNP(F), Analog of S. invicta sNPF1 with C-terminal amidated Y switched to F] | – | – | eliminates the ligand activity on the receptor | – |
| AQRSPSLRLRFa [Drome sNPF1, Drosophila melanogaster sNPF peptide (AAN11060.1)] | – | – | not active1 µM | – |
| WFGDVNQKPIRSPSLRLRFa [Drome sNPF2, Drosophila melanogaster sNPF peptide (AAN11060.1)] | – | – | not active1 µM | – |
| SLRSALAAGHLRYa [S. invicta sNPF1] | 3.28 nM | did not stimulate production of intracellular cAMP | decreased cAMP | – |
| SPSLRLRFa [Drome sNPF212–19] | – | – | not active1 µM | – |
